This assay concerns the target MK2 (Homo sapiens, UniProt P49137). Nature of the assay: Inhibition in solution assay of kinase MK2. It counts as biochemical. The conditions noted are these: IC50 extrapolated from the dose dependent inhibition graphs (FIG. 6).

Each structure is given as a SMILES string.

Chain of MK2 (P49137 whole entry, species assumed): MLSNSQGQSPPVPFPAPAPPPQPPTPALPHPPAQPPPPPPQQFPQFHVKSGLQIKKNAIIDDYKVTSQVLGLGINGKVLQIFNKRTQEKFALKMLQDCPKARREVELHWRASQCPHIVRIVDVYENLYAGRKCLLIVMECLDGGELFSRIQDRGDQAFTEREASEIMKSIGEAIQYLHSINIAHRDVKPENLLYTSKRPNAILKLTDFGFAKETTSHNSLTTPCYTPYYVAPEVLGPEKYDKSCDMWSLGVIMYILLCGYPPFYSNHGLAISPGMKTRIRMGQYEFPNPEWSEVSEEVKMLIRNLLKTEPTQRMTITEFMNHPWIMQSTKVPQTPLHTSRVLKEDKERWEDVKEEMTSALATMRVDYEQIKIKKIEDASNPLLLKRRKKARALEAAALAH
Description: Determination of affinity of MK2 inhibitors (IC50) through inhibition in solution assay of kinase MK2 by various compounds of general formula I-VI

For the compound `Cc1ccc(-c2ccc3c(ccc4sc5c(c43)NC[C@@H](C)NC5=O)n2)cn1` [PF 3644022], the 50% inhibitory concentration (IC50) was 585 nM.
